From US20240400542A1 (University of Virginia Patent Foundation, priority 2021, published 2024)

Columns and labels:
Assay in all cases: SILAC competitive chemical proteomic assay (TH211 probe, LC-MS/MS)
[1] = tested on: Heat shock protein HSP 90-beta; type: cell-based, human; details: TH207 inhibitor; HEK293T soluble fraction; tyrosine 61
Procedure: (§1) The light and heavy proteomes (2.3 mg/mL, 432 μL) prepared from HEK293T cells that were pretreated in situ with vehicle (DMSO) or the inhibitor (2 μM), respectively, at 37° C. for 1 hr followed by probe TH211 treatment (50 μM) for 2 h, were directly were subjected to click reaction with the desthiobiotin-PEG3-azide (10 mM in DMSO, 10 μL, final concentration 200 μM) in the presence of TCEP (50 mM, 10 μL), TBTA (1.7 mM, 33 μL) and CuSO4 (50 mM, 10 μL) at room temperature for 1 hr. The light and the heavy samples were mixed in the chloroform-methanol extraction step. The subsequent steps including reduction with dithiothreitol, alkylation with iodoacetamide, digestion with Trypsin/Lys-C, enrichment with avidin beads were conducted as previously described^26.

[2] = tested on: Major capsid protein VP1; type: cell-based; details: TH207 inhibitor; HEK293T soluble fraction; Q98WD1 lysine 235
Procedure: as §1

[3] = biological target: T1, Phosphotyrosine protein phosphatase (Homo sapiens, UniProt P24666); type: cell-based; details: TH207 inhibitor; HEK293T soluble fraction; P24666.3 tyrosine 132
T1 construct: endogenous in cells; host or cells: HEK293T
T1 sequence (P24666 1-158): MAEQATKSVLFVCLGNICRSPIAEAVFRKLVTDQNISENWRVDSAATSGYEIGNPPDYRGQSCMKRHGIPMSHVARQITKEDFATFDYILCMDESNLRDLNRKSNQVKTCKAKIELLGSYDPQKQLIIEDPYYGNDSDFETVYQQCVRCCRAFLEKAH
Procedure: as §1

[4] = biological target: T2, Phosphatidylinositol transfer protein beta isoform (Homo sapiens, UniProt P48739); type: cell-based; details: TH207 inhibitor, HEK293T soluble fraction
T2 construct: endogenous in cells; host or cells: HEK293T
T2 sequence (P48739 1-271): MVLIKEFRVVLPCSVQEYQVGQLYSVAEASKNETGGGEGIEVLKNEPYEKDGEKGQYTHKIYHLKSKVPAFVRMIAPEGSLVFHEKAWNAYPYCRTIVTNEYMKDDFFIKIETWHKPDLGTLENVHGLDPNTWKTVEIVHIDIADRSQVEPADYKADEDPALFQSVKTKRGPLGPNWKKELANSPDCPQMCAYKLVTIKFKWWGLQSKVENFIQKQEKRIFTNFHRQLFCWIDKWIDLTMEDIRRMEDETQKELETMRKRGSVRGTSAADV
Procedure: as §1

[5] = biological target: T3, Alpha-enolase (Homo sapiens, UniProt P06733); type: cell-based; details: TH207 inhibitor; HEK293T soluble fraction; P06733.2 lysine 80
T3 construct: endogenous in cells; host or cells: HEK293T
Procedure: as §1

[6] = biological target: T4, Coronin-1C (Homo sapiens, UniProt Q9ULV4); type: cell-based; details: TH207 inhibitor; HEK293T soluble fraction; Q9ULV4.1 tyrosine 301
T4 construct: endogenous in cells; host or cells: HEK293T
Procedure: as §1

[7] = biological target: T5, 14-3-3 protein epsilon (Homo sapiens, UniProt P62258); type: cell-based; details: TH207 inhibitor; HEK293T soluble fraction; P62258.1 lysine 215
T5 construct: endogenous in cells; host or cells: HEK293T
T5 sequence (P62258 1-255): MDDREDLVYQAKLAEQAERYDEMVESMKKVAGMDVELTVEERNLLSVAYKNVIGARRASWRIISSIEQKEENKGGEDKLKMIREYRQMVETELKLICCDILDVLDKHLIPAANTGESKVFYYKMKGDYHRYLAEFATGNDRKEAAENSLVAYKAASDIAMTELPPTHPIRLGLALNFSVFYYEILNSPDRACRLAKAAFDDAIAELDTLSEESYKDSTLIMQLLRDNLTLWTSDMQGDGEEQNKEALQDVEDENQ
Procedure: as §1

[8] = biological target: T6, Cytochrome c (Homo sapiens, UniProt P99999); type: cell-based; details: TH207 inhibitor, HEK293T soluble fraction
T6 construct: endogenous in cells; host or cells: HEK293T
Procedure: as §1

[9] = biological target: T7, Perilipin-2 (Homo sapiens, UniProt Q99541); type: cell-based; details: TH207 inhibitor; HEK293T soluble fraction; Q99541.2 tyrosine 190
T7 construct: endogenous in cells; host or cells: HEK293T
T7 sequence (Q99541 1-437): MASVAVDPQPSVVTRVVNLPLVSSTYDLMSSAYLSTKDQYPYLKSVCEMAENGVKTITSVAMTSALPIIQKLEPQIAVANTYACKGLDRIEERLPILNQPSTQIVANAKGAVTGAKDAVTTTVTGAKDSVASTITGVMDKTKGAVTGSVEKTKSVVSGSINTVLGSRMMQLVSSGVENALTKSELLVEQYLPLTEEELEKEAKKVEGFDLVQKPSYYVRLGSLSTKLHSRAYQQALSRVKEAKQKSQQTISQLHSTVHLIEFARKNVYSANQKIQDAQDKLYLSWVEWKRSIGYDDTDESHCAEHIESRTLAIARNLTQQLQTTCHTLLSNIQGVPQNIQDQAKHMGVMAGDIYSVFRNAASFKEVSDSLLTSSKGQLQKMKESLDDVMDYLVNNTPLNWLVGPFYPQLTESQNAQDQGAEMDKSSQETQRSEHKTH
Procedure: as §1

[10] = biological target: T8, Inosine-5′-monophosphate dehydrogenase 2 (Homo sapiens, UniProt P12268); type: cell-based; details: TH207 inhibitor; HEK293T soluble fraction; P12268.2 tyrosine 509
T8 construct: endogenous in cells; host or cells: HEK293T
Procedure: as §1

T6 sequence (P99999 whole entry): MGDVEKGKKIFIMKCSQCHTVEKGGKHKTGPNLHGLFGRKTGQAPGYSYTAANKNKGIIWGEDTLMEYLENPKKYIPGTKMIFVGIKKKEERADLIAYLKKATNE
T3 sequence (P06733 whole entry): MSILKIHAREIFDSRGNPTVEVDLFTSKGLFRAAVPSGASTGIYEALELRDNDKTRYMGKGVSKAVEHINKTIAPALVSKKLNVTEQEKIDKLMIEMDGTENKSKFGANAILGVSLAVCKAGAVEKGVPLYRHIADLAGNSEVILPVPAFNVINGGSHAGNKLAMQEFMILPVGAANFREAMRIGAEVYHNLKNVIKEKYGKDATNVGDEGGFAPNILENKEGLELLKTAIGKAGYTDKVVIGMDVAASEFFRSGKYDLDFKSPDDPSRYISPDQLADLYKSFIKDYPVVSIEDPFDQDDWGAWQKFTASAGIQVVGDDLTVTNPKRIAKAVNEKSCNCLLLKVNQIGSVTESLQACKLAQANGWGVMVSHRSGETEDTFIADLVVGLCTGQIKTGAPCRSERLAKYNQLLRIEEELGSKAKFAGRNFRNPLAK
T8 sequence (P12268 2-514 limits assumed): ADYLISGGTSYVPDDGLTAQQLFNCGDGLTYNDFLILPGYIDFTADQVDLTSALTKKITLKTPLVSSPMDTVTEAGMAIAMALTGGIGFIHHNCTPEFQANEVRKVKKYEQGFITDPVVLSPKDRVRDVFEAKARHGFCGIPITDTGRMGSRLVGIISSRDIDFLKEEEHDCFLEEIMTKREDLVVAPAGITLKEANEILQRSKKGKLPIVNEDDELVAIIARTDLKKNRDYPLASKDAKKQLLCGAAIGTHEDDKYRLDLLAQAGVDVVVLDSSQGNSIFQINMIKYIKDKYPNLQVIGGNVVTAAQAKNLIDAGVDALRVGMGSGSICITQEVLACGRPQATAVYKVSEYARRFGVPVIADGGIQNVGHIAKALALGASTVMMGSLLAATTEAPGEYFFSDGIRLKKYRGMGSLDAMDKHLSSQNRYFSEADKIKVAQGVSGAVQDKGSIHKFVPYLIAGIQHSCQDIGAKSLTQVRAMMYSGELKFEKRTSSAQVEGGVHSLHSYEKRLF
T4 sequence (Q9ULV4 whole entry): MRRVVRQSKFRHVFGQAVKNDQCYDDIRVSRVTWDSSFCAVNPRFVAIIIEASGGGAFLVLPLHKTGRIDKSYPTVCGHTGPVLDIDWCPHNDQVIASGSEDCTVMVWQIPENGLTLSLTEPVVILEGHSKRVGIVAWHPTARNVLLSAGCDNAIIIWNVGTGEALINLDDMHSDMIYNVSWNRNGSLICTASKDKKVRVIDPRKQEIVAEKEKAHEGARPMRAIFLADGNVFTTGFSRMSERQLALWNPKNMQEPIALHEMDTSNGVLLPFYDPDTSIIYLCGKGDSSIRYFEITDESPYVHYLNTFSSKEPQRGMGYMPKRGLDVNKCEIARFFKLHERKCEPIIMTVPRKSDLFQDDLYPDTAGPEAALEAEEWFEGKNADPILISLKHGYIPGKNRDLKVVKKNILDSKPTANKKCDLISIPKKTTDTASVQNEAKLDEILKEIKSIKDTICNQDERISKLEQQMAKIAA

## Cc1ccc(S(=O)(=O)n2cc(CCN3CCC(=C(c4ccc(F)cc4)c4ccc(F)cc4)CC3)nn2)cc1 [TH207, 4-(Bis(4-fluorophenyl)methylene)-1-(2-(1-tosyl-1H-1,2,3-triazol-4-yl)ethyl)piperidine]
[1]
  Normalized SILAC ratio (SR), Heat shock protein HSP 90-beta Y61: 1.5
[2]
  Normalized SILAC ratio (SR), Major capsid protein VP1 K235: 1.3
[3]
  Normalized SILAC ratio (SR), Phosphotyrosine protein phosphatase Y132: 1.9
[4]; P48739.2 lysine 155
  Normalized SILAC ratio (SR), Phosphatidylinositol transfer protein beta isoform K155: 1.8
[4]; P48739.2 tyrosine 154
  Normalized SILAC ratio (SR), Phosphatidylinositol transfer protein beta isoform Y154: 1.8
[5]
  Normalized SILAC ratio (SR), Alpha-enolase K80: 1.6
[6]
  Normalized SILAC ratio (SR), Coronin-1C Y301: 20
[7]
  Normalized SILAC ratio (SR), 14-3-3 protein epsilon K215: 3.7
[8]; P99999.2 lysine 28
  Normalized SILAC ratio (SR), Cytochrome c K28: 1.4
[8]; P99999.2 lysine 40
  Normalized SILAC ratio (SR), Cytochrome c K40: 1.5
[8]; P99999.2 lysine 54
  Normalized SILAC ratio (SR), Cytochrome c K54: 1.8
[8]; P99999.2 tyrosine 49
  Normalized SILAC ratio (SR), Cytochrome c Y49: 1.5
[9]
  Normalized SILAC ratio (SR), Perilipin-2 Y190: 3.5
[10]
  Normalized SILAC ratio (SR), Inosine-5′-monophosphate dehydrogenase 2 Y509: 1.6
